From US20260102499A1, “COMPOSITIONS WITH REDUCED N[…]” (INVENTIA HEALTHCARE LIMITED, priority 2022, published 2026)
Where “and” joins values, the source holds several entries; their conditions need not be identical. Equal entries are not always repeated.

Experiment: not given
Conditions: per day, as published by Health Canada; cited from earlier work

Row | SMILES | Acceptable Intake (AI) Levels
1 | CN1CCN(N=O)CC1 [1-methyl-4-nitrosopiperazine (MNP), 1-methyl-4-nitrosopiperazine] | 96.0 ng/day
2 | O=NN1CCn2c(nnc2C(F)(F)F)C1 [7-Nitroso-3-(trifluoromethyl)-5,6,7,8-tetrahydro[1,2,4]triazolo-[4,3-a]pyrazine] | 37.0 ng/day
3 | CN(CCc1ccccc1)N=O [N-methyl-N-nitroso-phenethylamine] | 8.0 ng/day
4 | O=NN1CC=CCC1 [N-nitroso-1,2,3,6-tetrahydropyridine] | 37.0 ng/day
5 | CN(CCCC(=O)O)N=O [N-nitroso-4-(methylamino)butyric acid] | 96.0 ng/day
6 | CCCCN(CCCC)N=O [N-nitroso-dibutylamine (NDBA), N-nitroso-dibutylamine] | 26.5 ng/day
7 | CCN(CC)N=O [N-nitroso-diethylamine (NDEA), N-nitroso-diethylamine] | 26.5 ng/day
8 | CC(C)N(N=O)C(C)C [N-nitroso-diisopropylamine (NDIPA), N-nitroso-diisopropylamine] | 26.5 ng/day
9 | CN(C)N=O [N-nitroso-dimethylamine (NDMA), N-nitroso-dimethylamine] | 96.0 ng/day
10 | CCCN(CCC)N=O [N-nitroso-dipropylamine (NDPA), N-nitroso-dipropylamine] | 26.5 ng/day
11 | CN(CC[C@H](Oc1cccc2ccccc12)c1cccs1)N=O [N-nitroso-duloxetine (NDLX), N-nitroso-duloxetine] | 100.0 ng/day
12 | CCN(N=O)C(C)C [N-nitroso-ethylisopropylamine (NEIPA), N-nitroso-ethylisopropylamine] | 26.5 ng/day
13 | COC(=O)C(c1ccccc1)C1CCCCN1N=O (stereo not shown) [N-nitroso-methylphenidate] | 1300.0 ng/day
14 | CN(CCC=C1c2ccccc2CCc2ccccc21)N=O [N-nitroso-nortriptyline (NNORT), N-nitroso-nortriptyline] | 8.0 ng/day
15 | O=NN1CCCCC1 [N-nitroso-piperidine] | 1300.0 ng/day
16 | C#CCN(N=O)[C@@H]1CCc2ccccc21 [N-nitroso-rasagiline] | 18.0 ng/day
17 | O=NN1CC2CC(C1)c1cc3nccnc3cc12 [N-nitroso-varenicline (NNV), N-nitroso-varenicline] | 37 ng/day and 37.0 ng/day
18 | O=NN1CCOCC1 [N-nitrosomorpholine (NMOR), N-nitrosomorpholine] | 127.0 ng/day

Experiment: Acceptable intake / acceptable level of nitrosamine impurities (Health Canada)
Conditions: based on a maximum daily dose of 2 mg for varenicline
From the text: International regulators such as United States Food and Drug Administration (USFDA), European Medicine Agency (EMA), and Health Canada have published recommendations with respect to ‘acceptable intake’ of nitrosamine impurities. ‘Acceptable intake’ (per day) of nitrosamine impurities varies with the impurity structure, molecular weight, and its toxicity potential. Table 1 illustrates the per day ‘acceptable intake’ of some nitrosamine impurities, as published by Health Canada.
‘Acceptable intake’ of a nitrosamine impurity, when applied to the maximum daily dose of a drug, provides ‘acceptable levels’ of the said nitrosamine impurity in pharmaceutical compositions containing the said drug. ‘Acceptable levels’ of a nitrosamine impurity are expressed in parts per million (ppm) or parts per billion (ppb), of the drug (by weight). For example, for varenicline (which contains amine), the ‘acceptable intake’ of the N-nitroso-varenicline (NNV) (nitrosamine impurity of the NDSRI type) is 37 ng/day, and the ‘acceptable level’ of NNV is 18.5 ppm based on a maximum daily dose of 2 mg for varenicline.

Row | SMILES | acceptable level of NNV [ppm]
19 | O=NN1CC2CC(C1)c1cc3nccnc3cc12 [N-nitroso-varenicline (NNV), N-nitroso-varenicline] | 18.5
